Legend:
JAK2 = JAK2 (Homo sapiens (Human), UniProt O60674); assay: Jak Biochemical HTRF Assay, JAK2; conditions: HTRF biochemical assay, GST-tagged catalytic domain; top concentration tested […]
From the text: (§1) Jak Biochemical HTRF Assay Protocol
(§2) Subsequent reagent additions employed an Agilent Bravo.

JAK1 = JAK1 (Homo sapiens (Human), UniProt P23458); assay: Jak Biochemical HTRF Assay, JAK1; conditions: HTRF biochemical assay, GST-tagged catalytic domain; top concentration tested […]; read-out: JAK1 IC50
Chain of JAK1 (P23458 875-1153): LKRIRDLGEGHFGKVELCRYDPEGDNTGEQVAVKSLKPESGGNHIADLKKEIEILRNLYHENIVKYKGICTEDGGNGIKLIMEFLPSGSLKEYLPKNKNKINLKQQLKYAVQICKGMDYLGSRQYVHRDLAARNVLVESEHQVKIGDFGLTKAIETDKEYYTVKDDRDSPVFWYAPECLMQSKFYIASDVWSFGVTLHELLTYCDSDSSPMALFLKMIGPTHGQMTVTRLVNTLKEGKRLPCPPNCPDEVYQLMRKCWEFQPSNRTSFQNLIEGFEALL
From the text: as §1, §2

Chain of JAK2 (O60674 849-1124): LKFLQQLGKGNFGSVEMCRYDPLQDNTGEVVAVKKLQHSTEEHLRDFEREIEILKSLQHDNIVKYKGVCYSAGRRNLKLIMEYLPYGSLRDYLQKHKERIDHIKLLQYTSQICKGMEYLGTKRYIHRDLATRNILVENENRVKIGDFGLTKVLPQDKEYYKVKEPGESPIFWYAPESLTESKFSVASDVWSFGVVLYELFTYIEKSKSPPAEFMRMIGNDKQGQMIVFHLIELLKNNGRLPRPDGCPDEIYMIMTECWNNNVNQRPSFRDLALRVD

| SMILES | IC50 (JAK2) [nM] | IC50 (JAK1) [nM] |
| --- | --- | --- |
| CC(C)(C)OC(=O)N1CC2(C1)CC(CC#N)(n1cc(C(N)=O)c(Nc3ccccc3)n1)C2 [Example 2-23, tert-butyl 6-[4-carbamoyl-3-(phenylamino)-1H-pyrazol-1-yl]-6-(cyanomethyl)-2-azaspiro[3.3]heptane-2-carboxylate] | 1480 | 198 |
| CC(C)[C@H](O)C(=O)N1CCC(CC#N)(n2cc(C(N)=O)c(Nc3ccnc(F)c3)n2)CC1 [Example 34-47, 1-{4-(cyanomethyl)-1-[(2S)-2-hydroxy-3-methylbutanoyl]piperidin-4-yl}-3-[(2-fluoropyridin-4-yl)amino]-1H-pyrazole-4-carboxamide] | 79 | 2 |
| N#CCC1(n2cc(C(N)=O)c(Nc3ccc(F)cc3)n2)CCN(c2ccc(C(F)(F)F)nc2)CC1 [Example 3-28, 1-{4-(cyanomethyl)-1-[6-(trifluoromethyl)pyridin-3-yl]piperidin-4-yl}-3-[(4-fluorophenyl)amino]-1H-pyrazole-4-carboxamide] | 26 | 0.6 |
| N#CCC1(n2cc(C(N)=O)c(Nc3ccccc3)n2)CCN(C(=O)C2CCCCC2)CC1 [Example 34-13, 1-[4-(cyanomethyl)-1-(cyclohexylcarbonyl)piperidin-4-yl]-3-(phenylamino)-1H-pyrazole-4-carboxamide] | 44 | 2 |
| Cc1cncc(Nc2nn(C3(CC#N)CCN(C(=O)OC(C)(C)C)CC3)cc2C(N)=O)n1 [Example 13-8, tert-butyl 4-(4-carbamoyl-3-(6-methylpyrazine-2-ylamino)-1H-pyrazol-1-yl)-4-(cyanomethyl)piperidine-1-carboxylate] | 176 | 9 |
| N#CCC1(n2cc(C(N)=O)c(Nc3ccnc(F)c3)n2)CCN(Cc2ccccc2C#N)CC1 [Example 22-72, 1-[1-(2-cyanobenzyl)-4-(cyanomethyl)piperidin-4-yl]-3-[(2-fluoropyridin-4-yl)amino]-1H-pyrazole-4-carboxamide] | 13 | 0.3 |
| Cc1ccc(N2CCC(CC#N)(n3cc(C(N)=O)c(Nc4ccc(F)cc4)n3)CC2)cc1F [Example 3-34, 1-[4-(cyanomethyl)-1-(3-fluoro-4-methylphenyl)piperidin-4-yl]-3-[(4-fluorophenyl)amino]-1H-pyrazole-4-carboxamide] | 215 | 5 |
| N#CCC1(n2cc(C(N)=O)c(Nc3ccccc3)n2)CN(C(=O)OCc2ccncc2)C1 [Example 30-66, pyridin-4-ylmethyl 3-[4-carbamoyl-3-(phenylamino)-1H-pyrazol-1-yl]-3-(cyanomethyl)azetidine-1-carboxylate] | 353 | 19 |
| CC(C)(C)OC(=O)N1CCC(CC#N)(n2cc(C(N)=O)c(Nc3ccc(F)nc3)n2)CC1 [Example 12-5, tert-butyl 4-{4-carbamoyl-3-[(6-fluoropyridin-3-yl)amino]-1H-pyrazol-1-yl}-4-(cyanomethyl)piperidine-1-carboxylate] | 7 | 0.8 |
| CC(C)COC(=O)N1CC(CC#N)(n2cc(C(N)=O)c(Nc3ccccc3)n2)C1 [Example 30-51, 2-methylpropyl 3-[4-carbamoyl-3-(phenylamino)-1H-pyrazol-1-yl]-3-(cyanomethyl)azetidine-1-carboxylate] | 298 | 14 |
| CCOC(=O)COC(=O)N1CC(CC#N)(n2cc(C(N)=O)c(Nc3ccccc3)n2)C1 [Example 30-60, 2-ethoxy-2-oxoethyl 3-[4-carbamoyl-3-(phenylamino)-1H-pyrazol-1-yl]-3-(cyanomethyl)azetidine-1-carboxylate] | 484 | 39 |
| COC(=O)Cc1ccc(Nc2nn(C3(CC#N)CCN(C(=O)OC(C)(C)C)CC3)cc2C(N)=O)cc1 [Example 12-2, tert-butyl 4-(4-carbamoyl-3-{[4-(2-methoxy-2-oxoethyl)phenyl]amino}-1H-pyrazol-1-yl)-4-(cyanomethyl)piperidine-1-carboxylate] | 3 | 0.2 |
| CC(=O)c1ccc(Nc2nn(C3(CC#N)CCN(C(=O)OC(C)(C)C)CC3)cc2C(N)=O)cc1 [Example 9-10, tert-butyl 4-(3-(4-acetylphenylamino)-4-carbamoyl-1H-pyrazol-1-yl)-4-(cyanomethyl)piperidine-1-carboxylate] | 3 | 0.2 |
| N#CCC1(n2cc(C(N)=O)c(Nc3ccccc3)n2)CCN(C(=O)OCc2cccnc2)CC1 [Example 30-39, pyridin-3-ylmethyl 4-[4-carbamoyl-3-(phenylamino)-1H-pyrazol-1-yl]-4-(cyanomethyl)piperidine-1-carboxylate] | 38 | 2 |
| N#CCC1(n2cc(C(N)=O)c(Nc3ccc(F)cc3)n2)CCN(CC2CC2)CC1 [Example 24-2, 1-[4-(cyanomethyl)-1-(cyclopropylmethyl)piperidin-4-yl]-3-[(4-fluorophenyl)amino]-1H-pyrazole-4-carboxamide] | 917 | 41 |
| CC(C)COC(=O)N1CCC(CC#N)(n2cc(C(N)=O)c(Nc3ccccc3)n2)CC1 [Example 30-28, 2-methylpropyl 4-[4-carbamoyl-3-(phenylamino)-1H-pyrazol-1-yl]-4-(cyanomethyl)piperidine-1-carboxylate] | 102 | 3 |
| COC(C)COC(=O)N1CCC(CC#N)(n2cc(C(N)=O)c(Nc3ccc(F)cc3)n2)CC1 (stereo not drawn) [Example 30-24, 2-methoxypropyl 4-{4-carbamoyl-3-[(4-fluorophenyl)amino]-1H-pyrazol-1-yl}-4-(cyanomethyl)piperidine-1-carboxylate] | 96 | 4 |
| N#CCC1(n2cc(C(N)=O)c(Nc3ccccc3)n2)CCN(Cc2ccc3c(c2)OCO3)CC1 [Example 21-10, 1-[1-(1,3-benzodioxol-5-ylmethyl)-4-(cyanomethyl)piperidin-4-yl]-3-(phenylamino)-1H-pyrazole-4-carboxamide] | 78 | 8 |
| COc1cccnc1N1CCC(CC#N)(n2cc(C(N)=O)c(Nc3ccc(F)cc3)n2)CC1 [Example 3-23, 1-[4-(cyanomethyl)-1-(3-methoxypyridin-2-yl)piperidin-4-yl]-3-[(4-fluorophenyl)amino]-1H-pyrazole-4-carboxamide] | 559 | 33 |
| N#CCC1(n2cc(C(N)=O)c(Nc3ccnc(F)c3)n2)CCN(Cc2ccnc3[nH]ccc23)CC1 [Example 22-18, 1-[4-(cyanomethyl)-1-(1H-pyrrolo[2,3-b]pyridin-4-ylmethyl)piperidin-4-yl]-3-[(2-fluoropyridin-4-yl)amino]-1H-pyrazole-4-carboxamide] | 72 | 2 |
| N#CCC1(n2cc(C(N)=O)c(Nc3ccnc(C4CC4)c3)n2)CCN(C(=O)OCC(F)F)CC1 [Example 9-41, 2,2-difluoroethyl 4-{4-carbamoyl-3-[(2-cyclopropylpyridin-4-yl)amino]-1H-pyrazol-1-yl}-4-(cyanomethyl)piperidine-1-carboxylate] | 201 | 6 |

The next lines start with the values.

| IC50 (JAK2) [nM] | IC50 (JAK1) [nM] | SMILES |
| --- | --- | --- |
| > 1500 | 235 | N#CCC1(n2cc(C(N)=O)c(Nc3ccc(F)cc3)n2)CCC(Nc2ccc(F)cc2)CC1 (stereo not drawn) [Example 40-18, Cis or trans 1-{1-(cyanomethyl)-4-[(4-fluorophenyl)amino]cyclohexyl}-3-[(4-fluorophenyl)amino]-1H-pyrazole-4-carboxamide] |
| 303 | 16 | CCc1ccccc1NC(=O)N1CC(CC#N)(n2cc(C(N)=O)c(Nc3ccccc3)n2)C1 [Example 38-39, 1-{3-(cyanomethyl)-1-[(2-ethylphenyl)carbamoyl]azetidin-3-yl}-3-(phenylamino)-1H-pyrazole-4-carboxamide] |
| 2 | 0.08 | CN(c1ccccc1)C1CCC(CC#N)(n2cc(C(N)=O)c(Nc3ccnc(F)c3)n2)CC1 (stereo not drawn) [Example 40-15, Cis or trans 1-{1-(cyanomethyl)-4-[methyl(phenyl)amino]cyclohexyl}-3-[(2-fluoropyridin-4-yl)amino]-1H-pyrazole-4-carboxamide] |
| 6 | 0.7 | N#CCC1(n2cc(C(N)=O)c(Nc3ccccc3)n2)CCN(S(=O)(=O)C(F)(F)F)CC1 [Example 37-5, 1-{4-(cyanomethyl)-1-[(trifluoromethyl)sulfonyl]piperidin-4-yl}-3-(phenylamino)-1H-pyrazole-4-carboxamide] |
| 521 | 105 | N#CCC1(n2cc(C(N)=O)c(Nc3ccccc3)n2)CN(S(=O)(=O)Cc2ccccc2)C1 [Example 37-20, 1-[1-(benzylsulfonyl)-3-(cyanomethyl)azetidin-3-yl]-3-(phenylamino)-1H-pyrazole-4-carboxamide] |
| 11 | 0.2 | N#CCC1(n2cc(C(N)=O)c(Nc3ccnc(F)c3)n2)CCC(N2CC(F)C2)CC1 (stereo not drawn) [Example 40-104, Cis or trans 1-[1-(cyanomethyl)-4-(3-fluoroazetidin-1-yl)cyclohexyl]-3-[(2-fluoropyridin-4-yl)amino]-1H-pyrazole-4-carboxamide] |
| 33 | 1 | N#CC[C@]1(n2cc(C(N)=O)c(Nc3ccc(S(=O)(=O)C(F)F)cc3)n2)CC[C@H](N)CC1 [Example 41-3] |
| 168 | 18 | COc1ccc(C)cc1NC(=O)N1CC(CC#N)(n2cc(C(N)=O)c(Nc3ccccc3)n2)C1 [Example 38-25, 1-{3-(cyanomethyl)-1-[(2-methoxy-5-methylphenyl)carbamoyl]azetidin-3-yl}-3-(phenylamino)-1H-pyrazole-4-carboxamide] |
| 1480 | 185 | CC(C)(C)CC(C)(C)NC(=O)N1CC(CC#N)(n2cc(C(N)=O)c(Nc3ccccc3)n2)C1 [Example 38-29, 1-{3-(cyanomethyl)-1-[(1,1,3,3-tetramethylbutyl)carbamoyl]azetidin-3-yl}-3-(phenylamino)-1H-pyrazole-4-carboxamide] |
